Experimental data: US4352788A, “Derivatives of 2,4,6-triiodo-isophthalic acid, processes for their synthesis and X-ray contrasting materials containing these” (Bracco Industria Chimica S.p.A., priority 1979, dated 1982)
≈ marks a conversion by molar mass, not a printed value. Entries after “also recorded” stand apart in the source; their conditions may differ. Where two headings read alike, the source gives them in different places. Each block holds one compound with its values, some of them ahead of it.

Key:
[1] = Water solubility; type: physicochemical; settings: for solubility: water
[2] = cited from earlier work; for water solubility (in words): prior art
[3] = Stability (hydrolysis, aqueous solution); type: physicochemical
[4] = Osmotic pressure of solutions; type: physicochemical; settings: for Osmotic Pressure: 37° C.
[5] = Density of injection solution; type: physicochemical; settings: injection solution (Example 14), in g/mL (unit assumed)
[6] = Viscosity of aqueous solutions; type: physicochemical; settings: for Viscosity at 37° C.: injection solution (Example 14)
[7] = Solubility in organic solvents; type: physicochemical
[8] = Osmolality of solutions; type: physicochemical; settings: 37° C.
[9] = cited from earlier work
[10] = prior art; cited from earlier work
[11] = compared with METRIZAMIDE; cited from earlier work
[12] = at 25° C., read-out: Water solubility
[13] = aqueous solution containing 300 mg I/ml, 20° C.
[14] = aqueous solution containing 300 mg I/ml, 37° C.
[15] = aqueous solution containing 400 mg I/ml, 20° C.
[16] = aqueous solution containing 400 mg I/ml, 37° C.
[17] = at 20° C., Table 1, read-out: Solubility in Water

solubility [1, 12]: ≥ 1000 mg/mL
Structure (SMILES): C[C@H](O)C(=O)N(C)c1c(I)c(C(=O)NC(CO)CO)c(I)c(C(=O)NC(CO)CO)c1I [Example 1, L-5-(N-methyl-α-hydroxypropionyl-amino)-2,4,6-triiodoisophthalic-acid-bis-(1,3-dihydroxyisopropylamide)]

Structure (SMILES): CC(=O)Nc1c(I)c(C(=O)NCC(O)CO)c(I)c(C(=O)NCC(O)CO)c1I (stereo not drawn) [5-acetylamino-2,4,6-triiodoisophthalic-acid-bis-(2,3-dihydroxypropylamide)]
water solubility ([2]; at 20°-40° C.): 1 % (w/v)
water solubility (in words) [2]: slightly water-soluble

Structure (SMILES): C[C@H](O)C(=O)Nc1c(I)c(C(=O)NC(CO)CO)c(I)c(C(=O)NC(CO)CO)c1I [IOPAMIDOL hydrate, reference compound]
water solubility ([1]; at 20° C.): 307 mg of iodine per ml
solubility ([1]; at 20° C., read-out: water solubility): 627 mg/mL

stability (in words) [3]: high stability
Osmotic Pressure ([4]; 250 mg I/ml): 11.52 atm
Osmotic Pressure ([4]; 300 mg I/ml): 13.64 atm
Osmotic Pressure ([4]; 350 mg I/ml): 15.98 atm
osmotic pressure (in words) ([4]; compared with IOPAMIDOL): less than that of IOPAMIDOL
Density at 37° C. ([5]; 200 mg iodine/ml): 1.207
Density at 37° C. ([5]; 300 mg iodine/ml): 1.316
Density at 37° C. ([5]; 420 mg iodine/ml): 1.453
Viscosity [6, 13]: 7.55 cP
Viscosity [6, 14]: 4.19 cP
Viscosity [6, 15]: 22.0 cP
Viscosity [6, 16]: 9.87 cP
Viscosity at 37° C. ([6]; 200 mg iodine/ml): 1.87 cP
Viscosity at 37° C. ([6]; 300 mg iodine/ml): 4.19 cP
Viscosity at 37° C. ([6]; 420 mg iodine/ml): 20.03 cP
Solubility in ethanol (in words) [7]: limited
Solubility in ethanol ([7]; ethanol at 25° C.): 35 parts by volume
Solubility in ethanol ([7]; ethanol at the boiling point): 20 parts by volume
solubility ([7]; methanol, organic solvent or mixture): 1000 mg/mL (≈ 1290 mM)
solubility in methanol (in words) ([7]; methanol, listed as Example 9): very readily soluble
solubility in methanol (in words) ([7]; methanol, listed as Example 11): very soluble
Osmolality ([8]; 250 mg I/ml): 452 mOsm/kg
Osmolality ([8]; 300 mg I/ml): 536 mOsm/kg
Osmolality ([8]; 350 mg I/ml): 628 mOsm/kg
water solubility (in words) ([1]; listed as Example 9): very readily soluble
water solubility (in words) ([1]; listed as Example 11): very soluble
solubility [1, 17]: > 1000 mg/mL
solubility ([1]; read-out: solubility in water): 3000 mg/mL (≈ 3860 mM)
Structure (SMILES): CN(C(=O)CO)c1c(I)c(C(=O)NCC(O)CO)c(I)c(C(=O)NCC(O)CO)c1I (stereo not drawn) [Compound A, 5-(N-methyl-hydroxyacetylamino)-2,4,6-triiodo-isophthalic-acid-bis-(2,3-dihydroxypropylamide)]
viscosity of aqueous solutions (in words) [6]: low viscosity; also recorded: appreciably lower viscosity
water solubility (in words) [1]: comparatively particularly high water-solubility; also recorded: higher water solubility

supersaturation of aqueous solutions [1]: supersaturated
water solubility (in words) [1]: dissolves in water very readily
Structure (SMILES): CC(O)C(=O)N(C)c1c(I)c(C(=O)NC(CO)CO)c(I)c(C(=O)NC(CO)CO)c1I (racemic) [d,L-5-(N-methyl-α-hydroxypropionyl-amino)-2,4,6-triiodo-isophthalic-acid-bis-(1,3-dihydroxyisopropylamide]

Viscosity [6, 13]: 11.7 cP
Viscosity [6, 14]: 5.98 cP
Viscosity [6, 15]: 77.8 cP
Viscosity [6, 16]: 26.9 cP
solubility [1, 17]: ~800 mg/mL (≈ 1010 mM)
Structure (SMILES): CC(=O)Nc1c(I)c(C(=O)N[C@H]2C(O)O[C@H](CO)[C@@H](O)[C@@H]2O)c(I)c(N(C)C(C)=O)c1I (stereo partly drawn) [C, 3-acetylamino-4-N-methyl-acetylamino-2,4,6-triiodobenzoylglucosamine, reference compound]
stability in aqueous solutions (in words) ([9]; prior art): relatively little stability in aqueous solutions
water solubility (in words) [2]: readily water-soluble

solubility in chloroform (in words) ([7]; chloroform): very soluble
Solubility in ethanol (in words) [7]: very soluble
solubility in methanol (in words) ([7]; methanol): very soluble
water solubility (in words) [1]: only slightly soluble in water
Structure (SMILES): CN(C(=O)CO)c1c(I)c(C(=O)NCC2COC(C)(C)O2)c(I)c(C(=O)NCC2COC(C)(C)O2)c1I (stereo not drawn) [Example 13(A), 5-(N-methyl-hydroxyacetyl-amino)-2,4,6-triiodo-isophthalic-acid-bis-(2,3-isopropylidenedihydroxypropylamide)]

water solubility (in words) [1]: only limited solubility in water
Structure (SMILES): CC(O)C(=O)Nc1c(I)c(C(=O)NC(CO)CO)c(I)c(C(=O)NC(CO)CO)c1I (racemic) [d,L-5-α-hydroxypropionylamino-2,4,6-triiodo-isophthalic-acid-bis-(1,3-dihydroxyisopropylamide)]

solubility ([1]; temperature not stated, read-out: Water solubility): ≥ 1000 mg/mL
Structure (SMILES): CCCCN(C(=O)[C@H](C)O)c1c(I)c(C(=O)NC(CO)CO)c(I)c(C(=O)NC(CO)CO)c1I [Example 4, L-5-(N-butyl-α-hydroxypropionyl-amino)-2,4,6-triiodo-isophthalic-acid-bis-(1,3-dihydroxyisopropylamide)]

Structure (SMILES): C[C@H](O)C(=O)Nc1c(I)c(C(=O)NC(CO)CO)c(I)c(C(=O)NC(CO)CO)c1I [Compound B, L-5-α-hydroxypropionylamino-2,4,6-triiodo-isophthalic-acid-bis-(1,3-dihydroxyisopropylamide), reference compound]
toxicity (in words) [10]: very low
viscosity of concentrated aqueous solutions (in words) [11]: lower viscosity
Osmotic Pressure ([4]; 250 mg I/ml): 13.09 atm
Osmotic Pressure ([4]; 300 mg I/ml): 15.76 atm
Osmotic Pressure ([4]; 350 mg I/ml): 18.77 atm
stability (in words) ([9]; compared with METRIZAMIDE): higher stability
Viscosity [6, 13]: 8.95 cP
Viscosity [6, 14]: 4.70 cP
Viscosity [6, 15]: 40.6 cP
Viscosity [6, 16]: 16.1 cP
Osmolality ([8]; 250 mg I/ml): 514 mOsm/kg
Osmolality ([8]; 300 mg I/ml): 619 mOsm/kg
Osmolality ([8]; 350 mg I/ml): 737 mOsm/kg
water solubility ([1]; at 20° C., text): 89.7 % w/v
water solubility ([1]; at 20° C., listed as IOPAMIDOL): 440 mg of iodine per ml

solubility [1, 12]: ≥ 1000 mg/mL
Structure (SMILES): CCCN(C(=O)[C@H](C)O)c1c(I)c(C(=O)NC(CO)CO)c(I)c(C(=O)NC(CO)CO)c1I [Example 3]
